Experimental data taken from patent US9884063B2, “Amido-substituted azole compounds” (Bayer Pharma Aktiengesellschaft, priority 2014, dated 2018).

Target: T1, TNKS1 (Homo sapiens, UniProt O95271)
T1 sequence (O95271 1-1327): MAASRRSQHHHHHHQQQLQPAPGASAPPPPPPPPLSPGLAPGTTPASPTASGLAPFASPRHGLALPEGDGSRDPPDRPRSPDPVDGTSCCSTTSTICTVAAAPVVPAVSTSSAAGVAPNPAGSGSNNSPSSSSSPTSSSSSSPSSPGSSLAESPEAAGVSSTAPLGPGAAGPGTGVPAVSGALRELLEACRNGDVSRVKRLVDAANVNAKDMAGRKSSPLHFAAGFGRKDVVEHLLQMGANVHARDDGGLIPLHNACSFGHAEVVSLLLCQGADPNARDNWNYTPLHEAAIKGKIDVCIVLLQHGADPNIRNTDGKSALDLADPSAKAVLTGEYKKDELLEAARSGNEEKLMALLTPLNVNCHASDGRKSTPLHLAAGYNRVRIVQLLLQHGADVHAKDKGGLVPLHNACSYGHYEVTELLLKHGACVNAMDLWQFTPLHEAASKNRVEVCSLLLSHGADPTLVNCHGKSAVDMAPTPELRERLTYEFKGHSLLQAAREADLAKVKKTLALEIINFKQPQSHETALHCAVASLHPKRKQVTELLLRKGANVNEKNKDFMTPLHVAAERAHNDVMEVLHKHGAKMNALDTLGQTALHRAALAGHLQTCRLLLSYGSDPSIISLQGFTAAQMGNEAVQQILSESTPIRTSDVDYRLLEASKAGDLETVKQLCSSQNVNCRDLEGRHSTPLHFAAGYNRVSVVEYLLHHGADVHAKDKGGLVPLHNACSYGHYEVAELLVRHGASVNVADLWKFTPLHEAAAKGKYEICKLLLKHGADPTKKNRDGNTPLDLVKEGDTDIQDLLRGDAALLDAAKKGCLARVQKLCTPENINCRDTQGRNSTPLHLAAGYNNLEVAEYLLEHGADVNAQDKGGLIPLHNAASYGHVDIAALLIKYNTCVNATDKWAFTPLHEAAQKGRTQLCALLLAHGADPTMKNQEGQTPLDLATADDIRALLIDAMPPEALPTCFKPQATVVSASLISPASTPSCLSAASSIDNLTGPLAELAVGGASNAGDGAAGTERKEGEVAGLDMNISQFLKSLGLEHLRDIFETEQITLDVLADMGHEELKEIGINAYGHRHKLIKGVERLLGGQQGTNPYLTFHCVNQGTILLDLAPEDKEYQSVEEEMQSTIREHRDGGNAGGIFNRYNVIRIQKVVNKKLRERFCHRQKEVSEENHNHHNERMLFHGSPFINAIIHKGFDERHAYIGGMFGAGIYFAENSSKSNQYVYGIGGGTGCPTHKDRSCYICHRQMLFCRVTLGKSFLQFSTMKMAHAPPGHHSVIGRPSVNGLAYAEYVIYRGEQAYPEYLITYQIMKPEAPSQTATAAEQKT
Experiment: Modified TNKS1 Assay 2 (auto-parsylation, [3H]-NAD+ SPA)
Format: biochemical
Settings: 6 nM TNKS1, 96 well

SMILES | IC50 [nM]
O=C(Nc1ccc(NC(=O)c2[nH]cnc2C(=O)N2CC3(COC3)C2)cc1)c1cc(F)c(F)cc1Cl [Example 52, N-{4-[(2-chloro-4,5-difluorobenzoyl)amino]phenyl}-4-(2-oxa-6-azaspiro[3.3]hept-6-ylcarbonyl)-1H-imidazole-5-carboxamide] | 30
CNC(=O)c1nc[nH]c1C(=O)Nc1ccc(NC(=O)c2ccccc2Cl)c(F)c1 [Example 80, N^5-{4-[(2-chlorobenzoyl)amino]-3-fluorophenyl}-N^4-methyl-1H-imidazole-4,5-dicarboxamide] | 690
O=C(Nc1ccc(NC(=O)c2[nH]cnc2C(=O)NCCc2ccccn2)cc1)c1ccc(F)cc1Cl [Example 387, N^5-{4-[(2-chloro-4-fluorobenzoyl)amino]phenyl}-N^4-[2-(pyridin-2-yl)ethyl]-1H-imidazole-4,5-dicarboxamide] | 100
CCNC(=O)c1nc[nH]c1C(=O)Nc1ccc(NC(=O)c2ncccc2Cl)cc1 [Example 261, N^5-(4-{[(3-chloropyridin-2-yl)carbonyl]amino}phenyl)-N^4-ethyl-1H-imidazole-4,5-dicarboxamide] | 230
O=C(Nc1ccc(NC(=O)c2[nH]cnc2C(=O)NCCC2CCCC2)cc1)c1ccc(F)cc1Cl [Example 42, N^5-{4-[(2-chloro-4-fluorobenzoyl)amino]phenyl}-N^4-(2-cyclopentylethyl)-1H-imidazole-4,5-dicarboxamide] | > 10000
CNC(=O)c1nc[nH]c1C(=O)Nc1ccc(NC(=O)c2ccc(C#N)cc2)cc1 [Example 322, N^5-{4-[(4-cyanobenzoyl)amino]phenyl}-N^4-methyl-1H-imidazole-4,5-dicarboxamide] | 1000
CS(=O)(=O)c1ccc(C(=O)Nc2ccc(NC(=O)c3[nH]cnc3C(=O)NCCN3CCCCC3)cc2)c(Cl)c1 [Example 53, N^5-(4-{[2-chloro-4-(methylsulfonyl)benzoyl]amino}phenyl)-N^4-[2-(piperidin-1-yl)ethyl]-1H-imidazole-4,5-dicarboxamide] | 20
O=C(Nc1ccc(NC(=O)c2[nH]cnc2C(=O)NCCN2CCCCC2)cc1F)c1ccc(F)cc1 [Example 78, N^5-{3-fluoro-4-[(4-fluorobenzoyl)amino]phenyl}-N^4-[2-(piperidin-1-yl)ethyl]-1H-imidazole-4,5-dicarboxamide] | > 10000
CN(C)CCNC(=O)c1nc[nH]c1C(=O)Nc1ccc(NC(=O)c2ccc(F)cc2)c(F)c1 [Example 77, N^4-[2-(dimethylamino)ethyl]-N^5-{3-fluoro-4-[(4-fluorobenzoyl)amino]phenyl}-1H-imidazole-4,5-dicarboxamide] | 990
O=C(Nc1ccc(NC(=O)c2nc[nH]c2C(=O)NCCN2CCCCC2)cc1)c1ccccc1Cl [Example 381, N^4-{4-[(2-chlorobenzoyl)amino]phenyl}-N^5-[2-(piperidin-1-yl)ethyl]-1H-imidazole-4,5-dicarboxamide] | 20
CCN(CC)CCCCNC(=O)c1nc[nH]c1C(=O)Nc1ccc(NC(=O)c2ccc(F)cc2Cl)cc1 [Example 393, N^5-{4-[(2-chloro-4-fluorobenzoyl)amino]phenyl}-N^4-[4-(diethylamino)butyl]-1H-imidazole-4,5-dicarboxamide] | 300

Now from value to compound:

IC50 [nM] | SMILES
470 | CNC(=O)c1nc[nH]c1C(=O)Nc1ccc(NC(=O)c2cc(F)c(F)cc2C)cc1 [Example 377, N^5-{4-[(4,5-difluoro-2-methylbenzoyl)amino]phenyl}-N^4-methyl-1H-imidazole-4,5-dicarboxamide]
1200 | CNC(=O)c1nc[nH]c1C(=O)Nc1ccc(NC(=O)c2c(C)cccc2F)cc1 [Example 375, N^5-{4-[(2-fluoro-6-methylbenzoyl)amino]phenyl}-N^4-methyl-1H-imidazole-4,5-dicarboxamide]
> 10000 | CNC(=O)c1nc[nH]c1C(=O)Nc1ccc(NC(=O)c2ccc(F)c(Cl)c2F)cc1 [Example 359, N^5-{4-[(3-chloro-2,4-difluorobenzoyl)amino]phenyl}-N^4-methyl-1H-imidazole-4,5-dicarboxamide]
> 10000 | CNC(=O)c1nc[nH]c1C(=O)Nc1ccc(NC(=O)c2cc(OC(F)(F)F)ccc2Br)cc1 [Example 64, N^5-(4-{[2-bromo-5-(trifluoromethoxy)benzoyl]amino}phenyl)-N^4-methyl-1H-imidazole-4,5-dicarboxamide]
9200 | O=C(Nc1ccc(NC(=O)c2[nH]cnc2C(=O)NCCC2CC2)cc1)c1ccc(F)cc1Cl [Example 43, N^5-{4-[(2-chloro-4-fluorobenzoyl)amino]phenyl}-N^4-(2-cyclopropylethyl)-1H-imidazole-4,5-dicarboxamide]
2000 | CNC(=O)c1nc[nH]c1C(=O)Nc1ccc(NC(=O)c2ncccc2C)cc1 [Example 356, N^4-methyl-N^5-(4-{[(3-methylpyridin-2-yl)carbonyl]amino}phenyl)-1H-imidazole-4,5-dicarboxamide]
> 10000 | CNC(=O)c1nc[nH]c1C(=O)Nc1ccc(NC(=O)c2cccc(F)c2OC)cc1 [Example 367, N^5-{4-[(3-fluoro-2-methoxybenzoyl)amino]phenyl}-N^4-methyl-1H-imidazole-4,5-dicarboxamide]
6100 | CNC(=O)c1nc[nH]c1C(=O)Nc1ccc(NC(=O)c2cc(F)ccc2OC)cc1 [Example 364, N^5-{4-[(5-fluoro-2-methoxybenzoyl)amino]phenyl}-N^4-methyl-1H-imidazole-4,5-dicarboxamide]
30 | CNC(=O)c1nc[nH]c1C(=O)Nc1ccc(NC(=O)c2ccc(F)cc2I)cc1 [Example 61, N^5-{4-[(4-fluoro-2-iodobenzoyl)amino]phenyl}-N^4-methyl-1H-imidazole-4,5-dicarboxamide]
> 10000 | CNC(=O)c1nc[nH]c1C(=O)Nc1ccc(NC(=O)c2cc(C)ccn2)cc1 [Example 363, N^4-methyl-N^5-(4-{[(4-methylpyridin-2-yl)carbonyl]amino}phenyl)-1H-imidazole-4,5-dicarboxamide]
> 10000 | CNC(=O)c1nc[nH]c1C(=O)Nc1ccc(NC(=O)c2cccc(F)c2Cl)cc1 [Example 370, N^5-{4-[(2-chloro-3-fluorobenzoyl)amino]phenyl}-N^4-methyl-1H-imidazole-4,5-dicarboxamide]
> 10000 | CNC(=O)c1nc[nH]c1C(=O)Nc1ccc(NC(=O)c2ccc(C)c(Cl)c2)cc1 [Example 344, N^5-{4-[(3-chloro-4-methylbenzoyl)amino]phenyl}-N^4-methyl-1H-imidazole-4,5-dicarboxamide]
120 | CNC(=O)c1nc[nH]c1C(=O)Nc1ccc(NC(=O)c2ccc(S(C)(=O)=O)cc2Cl)cc1 [Example 55, N^5-(4-{[2-chloro-4-(methylsulfonyl)benzoyl]amino}phenyl)-N^4-methyl-1H-imidazole-4,5-dicarboxamide]
640 | CNC(=O)c1nc[nH]c1C(=O)Nc1ccc(NC(=O)c2c(F)cc(F)cc2F)cc1 [Example 342, N^4-methyl-N^5-{4-[(2,4,6-trifluorobenzoyl)amino]phenyl}-1H-imidazole-4,5-dicarboxamide]
2000 | CNC(=O)c1nc[nH]c1C(=O)Nc1ccc(NC(=O)c2c(C)cccc2Cl)cc1 [Example 343, N^5-{4-[(2-chloro-6-methylbenzoyl)amino]phenyl}-N^4-methyl-1H-imidazole-4,5-dicarboxamide]
